{"source": "patent US11383003B2", "about": "“Water soluble farnesol analogs and their use” (Kimberly-Clark Worldwide, Inc., priority 2012, dated 2022)", "key": {"C. albicans SC5314 [1]": {"system": "C. albicans SC5314", "experiment": "Germ tube formation (GTF %) in vitro screening, GlcNAc-triggered differentiation assay", "format": "cell-based, Candida albicans", "procedure": "Based on the results in FIG. 3, single cell suspensions of SC5314 was prepared as follows. Stock culture of C. albicans SC5314 was streaked onto YPD agar (YPDA) and incubated at 30° C. overnight. Single colonies were subcultured in YPD broth (YPDB) and incubated 30° C., 200 rpm overnight. Overnight culture in YPDB was subcultured in YPD broth again and incubated 30° C., 200 rpm 48 h. Cells were collected by centrifugation (4000 g 10 min) at 4° C., washed three times with sterile water, and then resuspended in sterile water a final concentration of 10^9 colony-forming unit/ml (cfu/ml). The suspension were stored at 4° C. at least 1 d, then subcultured into YPDB to a final concentration of 10^6 cfu/ml. After 48 h incubation, cell suspension was examined under the microscope for single cell percentage. When the single cell percentage exceeded 80%, cells were collected and washed three times with water, then resuspended in water to a final concentration of 10^9 cfu/ml, and stored at 4° C. for no more than a month.\nTwo approaches were taken to determine the percentage of cells with germ tubes formed (GTF %). One way was to count the total cells at the start of incubation, and count the ungerminated cells after incubation, then calculate the GTF % as (1—ungerminated cells/total cells at 0 h)*100. Another way was to store the samples at 15° C. for 20 h after incubation, then count the germinated cells and total cells after disaggregation, then calculated the GTF % as (germinated cells/total cells after storage)*100. […] Therefore, for practical purposes, the GTF % was determined by the first method, that is, GTF %=(1—ungerminated cells/total cells at 0 h)*100, for the in vitro screening discussed herein.\nA screening medium, containing 11 mM imidazole buffer, 3 mM MgSO4, and 2.6 mM N-acetyl-D-glucosamine (GlcNAc) has been used to study the effect of farnesol analogs on the germ tube formation of C. albicans. Here, the germ tube formation of C. albicans in modified screening media was assessed with various concentrations of imidazole buffer (10 mM, 30 mM and 50 mM) and MgSO4 (0.5 mM, 1.5 mM and 3 mM). […] It took 2 h to 3 h for the GTF % to reach above 80%. For practical purposes, the screening medium, containing 11 mM imidazole buffer, 0.5 mM MgSO4, and 2.6 mM N-acetyl-D-glucosamine (GlcNAc) was adopted for in vitro screening the quorum sensing inhibitory effect of farnesol compounds.\nThe in vitro screening assay was based on the N-acetylglucosamine (GlcNAc)-triggered differentiation assay (Hornby et al., “Quorum sensing in the dimorphic fungus Candida albicans is mediated by farnesol;” Applied and Environmental Microbiology 67:2982-2992; 2001), which included 0.56 ml of 0.1 M imidazole buffer (pH 6.5), 0.15 ml of 0.1 M MgSO4, 0.13 ml of 0.1 M GlcNAc, and 4.16 ml of sterilized water. Bioassays of quorum sensing candidates were conducted by the addition of the chemical, as a solution in 100% methanol, to the bioassay media; the final concentration of methanol was no greater than 1%."}, "[2]": {"system": "C. elegans glp4; sek1 infected with C. albicans SC5314", "experiment": "Death rate of C. elegans glp4; sek1 infected with C. albicans SC5314, 96 well plates", "format": "in vivo, Caenorhabditis elegans", "settings": "initial screening", "procedure": "Caenorhabditis elegans glp4; sek1 was used as the model for […]. Breger et al. (Breger, J.; Fuchs, B. B.; Aperis, G.; Moy, T. I., Ausubel, F. M., Mylonakis, E.; “Antifungal chemical compounds identified using a C. elegans pathogenicity assay.” PLoS Pathogens 3: 168-178; 2007) reported that the glp-4 mutation rendered the strain incapable of producing progeny at 25° C., and the sek-1 mutation enhanced the sensitivity of the strain to various pathogens, thereby decreasing the time for screening assays. It was observed that no progenies was produced by the Caenorhabditis elegans glp4; sek1 strain after 3 d incubation at 25° C.\nThe synchronization of C. elegans was achieved by collecting the eggs and arresting the larvae at L1 stage. The commonly used bleach treatment was able to release the eggs from the adult worms. However, it was observed that the released eggs were not always able to hatch after treated with sodium hypochlorite (0.2, 0.3, 0.4, 0.5, 0.7 or 1%) for 3-5 min. A modified egg laying method was developed to synchronize worms to L1 stage. In brief, stock cultures of C. elegans glp4; sek1, maintained on Nematode Growth Media plates (NGM plates), were subcultured onto NGM plates with OP 50 and incubated at 15° C. for 6-9 days. Then a chunk (1 cm^2) of agar with gravid adults was subcultured again onto NGM plates with OP50 and incubated at 15° C. After incubation of 3-7 days, the worms were gently washed off with 3 ml of M 9 buffer on the rotating platform (100 rpm). The plate was tilted on its lid to allow the liquid and worms drain to one side of the plate. The liquid and worms were aspirated off. The plate was washed again with M9 buffer three more times to remove OP50 as much as possible. After washing, the plate was incubated at 25° C. overnight to let the eggs hatch overnight. Since there was no OP50, the larvae were arrested at the L1 stage. The live C. elegans glp4; sek1 was quite curvy; whereas the dead C. elegans glp4; sek1 tended to be straight, and in most cases the dead worms with the hyphae of C. albicans pieced through the body. The curvy shape and movement after shaking were used as the criteria for live.\nThe In vitro screening assay, based on the method of Tampakakis et al (Tampakakis, E.; Okoli, I.; Mylonakis, E.; “A C. elegans-based, whole animal, in vivo screen for the identification of antifungal compounds.” Nature Protocols 3:1925-1931; 2008), is described as follows:\nL1 worms, which were prepared by the modified egg-laying method, were collected by centrifugation at 675 g for 30 s at room temperature, and the supernatant was removed. Worms were resuspended in M 9 buffer and inoculated on NGM agar plates with OP50, ˜1000 worms per plate. After 2-3 days incubation at 25° C., the worms were washed off with M 9 buffer for the […] assay.\nThe control were worms fed on OP50."}, "C. albicans SC5314 [3]": {"system": "C. albicans SC5314", "experiment": "Effect of quorum sensing molecules on lag phase/growth of C. albicans in YPD broth", "format": "cell-based, Candida albicans", "settings": "100 μM, 37° C., 6 h"}, "C. elegans glp4; sek1": {"system": "C. elegans glp4; sek1", "experiment": "Toxicity: death rate of C. elegans glp4; sek1 fed on E. coli OP50", "procedure": "The toxicity of the selected compounds/products were tested using the C. elegans glp4; sek1 fed on E. coli OP50 (Table 5).\nStock cultures of C. albicans SC 5314 was subcultured into 3 ml of YPD broth and incubated at 30° C. Then the overnight culture in broth was spread onto YPD agar, and incubated at 30° C. The 24 h old lawn of SC5314 was used to feed worms for 2 h at 25° C. The control were worms fed on OP50.\nThe worms were washed off the YPD plates and washed twice with M9 buffer. The worms were resuspended in screening media, M9 buffer with 0.3% Tween 80. The worm suspension (50 μl) was dispensed into the wells of 96-well plates, 20-30 worms/well. Aliquots (50 μl) of compounds in screening media were added to wells, 5 wells each compound. The 96 well plates were incubated at 25° C. for up to 5 days. Live and dead worms were counted during incubation, and the death rates of worms were calculated."}, "[4]": {"settings": "cited from earlier work"}}, "data": [{"smiles": "CC(C)=CCC/C(C)=C/CC/C(C)=C/CO", "note": "[E,E-farnesol, reference compound]", "values": [{"measurement": "GTF % (mean ± SEM, n = 2)", "setting": "C. albicans SC5314 [1]; 100 μM, * one replicate", "result": "44.0 ± 3.1", "unit": "%"}, {"measurement": "GTF % (mean ± SEM, n = 2)", "setting": "C. albicans SC5314 [1]; 200 μM", "result": "18.4 ± 2.9", "unit": "%"}, {"measurement": "% change in the death rate compared to the control", "setting": "[2]; 0.4 mM, day 1", "result": "−4", "unit": "%"}, {"measurement": "% change in the death rate compared to the control", "setting": "[2]; 0.4 mM, day 4", "result": "−16", "unit": "%"}, {"measurement": "% change in the death rate compared to the control", "setting": "[2]; 0.4 mM, day 5", "result": "−19", "unit": "%"}, {"measurement": "effect on death rate of infected C. elegans (in words)", "setting": "[2]; 0.4 mM", "result": "reduced the death rate slightly"}, {"measurement": "% change in the death rate compared to the control", "setting": "[2]; 1 mM, day 1", "result": "−12", "unit": "%"}, {"measurement": "% change in the death rate compared to the control", "setting": "[2]; 1 mM, day 4", "result": 14, "unit": "%"}, {"measurement": "% change in the death rate compared to the control", "setting": "[2]; 1 mM, day 5", "result": 10, "unit": "%"}, {"measurement": "% change in the death rate compared to the control", "setting": "[2]; 2 mM, day 1", "result": "−8", "unit": "%"}, {"measurement": "% change in the death rate compared to the control", "setting": "[2]; 2 mM, day 4", "result": 19, "unit": "%"}, {"measurement": "% change in the death rate compared to the control", "setting": "[2]; 2 mM, day 5", "result": 8, "unit": "%"}, {"measurement": "% change in the death rate compared to the control", "setting": "[2]; 3 mM, day 1", "result": "−21", "unit": "%"}, {"measurement": "% change in the death rate compared to the control", "setting": "[2]; 3 mM, day 4", "result": 23, "unit": "%"}, {"measurement": "% change in the death rate compared to the control", "setting": "[2]; 3 mM, day 5", "result": 12, "unit": "%"}, {"measurement": "effect on death rate of infected C. elegans (in words)", "setting": "[2]; higher concentration (above 0.4 mM)", "result": "resulted in higher death rate of the worm"}, {"measurement": "effect on the growth of C. albicans SC5314 (in words)", "setting": "C. albicans SC5314 [3]", "result": "little effect on the growth"}, {"measurement": "Death rate (%)", "setting": "C. elegans glp4; sek1; 2 mM, worms fed on E. coli OP50, 25° C.", "result": 7, "unit": "%"}, {"measurement": "toxicity to C. elegans fed on E. coli OP50 (in words)", "setting": "C. elegans glp4; sek1; in vivo", "result": "slightly higher than the control"}, {"measurement": "solubility in water (in words)", "setting": "[4]", "result": "insoluble in water"}]}]}
